# Assay results from PubChem BioAssay AID651817 (Broad Institute, 2012).
# Activity calls are given as the source filed them.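 The calls were made as follows: active = compound whose fitted luminescence drop, meaning cytotoxicity, reaches half effect at most twice its top valid tested dose; inconclusive = flat curve with a moderate drop, or an unreliable fit; inactive = rise instead of drop, flat response, or weaker potency.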
# Tested on: not listed separately
# Assay: mouse fibroblast viability loss – cell-based, cherry-pick samples, set 2, cytotoxicity control for T. cruzi growth inhibitor project, dose response (AID 651817)
# Details: NIH/3T3 viability, ATP luminescence (CellTiter-Glo), 90 h; at 3.8 µM (top of the series)
row,SMILES,"activity change, negative = cytotoxicity"
1,Cc1ccc(S(=O)(=O)Nc2ccc3c(c2)CC(=O)N([C@H](C)CO)C[C@@H](C)[C@H](CN(C)Cc2ccc(Cl)c(Cl)c2)O3)cc1,33.6% (inactive)
2,C[C@H]1CN([C@@H](C)CO)C(=O)c2cccc(NC(=O)c3nc4ccccc4s3)c2O[C@@H]1CN(C)S(=O)(=O)c1ccccc1,28.8% (inactive)

# Same assay, conditions: NIH/3T3 viability, ATP luminescence (CellTiter-Glo), 90 h; at 18 µM (top of the series)
row,SMILES,"activity change, negative = cytotoxicity"
1,C[C@H]1CN([C@@H](C)CO)C(=O)Cc2cc(NS(=O)(=O)c3ccc(Cl)cc3)ccc2O[C@@H]1CN(C)S(=O)(=O)c1ccc(Cl)cc1,-1.6% (inactive)

# Same assay, conditions: NIH/3T3 viability, ATP luminescence (CellTiter-Glo), 90 h; at 19.5 µM (top of the series)
row,SMILES,"activity change, negative = cytotoxicity"
1,Cc1ccc(S(=O)(=O)Nc2ccc3c(c2)CC(=O)N([C@H](C)CO)C[C@H](C)[C@@H](CN(C)Cc2ccccc2)O3)cc1,-0.645% (inactive)
2,Cc1ccc(S(=O)(=O)Nc2ccc3c(c2)CC(=O)N([C@@H](C)CO)C[C@H](C)[C@H](CN(C)Cc2ccccc2)O3)cc1,-4.35% (inactive)
3,C[C@H](CO)N1C[C@H](C)[C@@H](CN(C)S(=O)(=O)c2ccc(Cl)cc2)Oc2ccc(NS(=O)(=O)c3ccccc3)cc2CC1=O,-20.3% (inactive)
4,C[C@H]1CN([C@@H](C)CO)C(=O)Cc2cc(NS(=O)(=O)c3ccccc3)ccc2O[C@H]1CN(C)S(=O)(=O)c1ccc(Cl)cc1,-30.3% (inactive)
5,C[C@H]1CN([C@@H](C)CO)C(=O)c2cccc(NC(=O)c3ccncc3)c2O[C@@H]1CN(C)Cc1ccc2c(c1)OCO2,-3.23% (inactive)
6,Cc1ccc(S(=O)(=O)Nc2ccc3c(c2)CC(=O)N([C@H](C)CO)C[C@@H](C)[C@@H](CN(C)Cc2ccccc2)O3)cc1,-12.9% (inactive)
7,C[C@H]1CN([C@@H](C)CO)C(=O)Cc2cc(NS(=O)(=O)c3ccc(Cl)cc3)ccc2O[C@H]1CN(C)S(=O)(=O)c1ccc(Cl)cc1,-12.7% (inactive)
8,C[C@H](CO)N1C[C@H](C)[C@@H](CN(C)Cc2ccc(Oc3ccccc3)cc2)Oc2c(NC(=O)c3ccncc3)cccc2C1=O,16.4% (inactive)
9,Cc1ccc(S(=O)(=O)Nc2ccc3c(c2)CC(=O)N([C@@H](C)CO)C[C@@H](C)[C@@H](CN(C)Cc2ccccc2)O3)cc1,-13.8% (inactive)
10,COc1ccc(CN(C)C[C@@H]2Oc3c(NC(=O)Nc4ccc(C(F)(F)F)cc4)cccc3C(=O)N([C@@H](C)CO)C[C@H]2C)cc1,-16.2% (inactive)
11,Cc1ccc(S(=O)(=O)N(C)C[C@H]2Oc3ccc(NS(=O)(=O)c4ccccc4)cc3CC(=O)N([C@H](C)CO)C[C@H]2C)cc1,-0.01% (inactive)
12,C[C@H](CO)N1C[C@H](C)[C@H](CN(C)Cc2ccccc2)Oc2c(NC(=O)c3ccncc3)cccc2C1=O,6.02% (inactive)
13,COc1ccc(CN(C)C[C@H]2Oc3c(NC(=O)c4ccncc4)cccc3C(=O)N([C@H](C)CO)C[C@@H]2C)cc1,23.4% (inactive)
14,C[C@@H]1CN([C@H](C)CO)C(=O)c2cccc(NC(=O)c3nc4ccccc4s3)c2O[C@@H]1CN(C)S(=O)(=O)c1ccc(Cl)cc1,11.5% (inactive)
15,C[C@H](CO)N1C[C@H](C)[C@@H](CN(C)Cc2ccc(C(F)(F)F)cc2)Oc2c(NC(=O)c3ccncc3)cccc2C1=O,-10.8% (inactive)
16,COc1ccc(CN(C)C[C@H]2Oc3c(NC(=O)Nc4ccc(C(F)(F)F)cc4)cccc3C(=O)N([C@H](C)CO)C[C@@H]2C)cc1,-1.02% (inactive)
17,C[C@@H]1CN([C@@H](C)CO)C(=O)c2cccc(NC(=O)c3ccncc3)c2O[C@H]1CN(C)Cc1ccc2c(c1)OCO2,-26.4% (inactive)
18,C[C@H]1CN([C@@H](C)CO)C(=O)c2cccc(NC(=O)c3ccncc3)c2O[C@H]1CN(C)CC1CCCCC1,36.4% (inactive)
19,C[C@@H]1CN([C@H](C)CO)C(=O)Cc2cc(NS(=O)(=O)c3ccccc3)ccc2O[C@@H]1CN(C)S(=O)(=O)c1ccc(Cl)cc1,-10.7% (inactive)
20,C[C@@H]1CN([C@@H](C)CO)C(=O)c2cccc(NC(=O)c3ccncc3)c2O[C@H]1CN(C)CC1CCCCC1,-8.6% (inactive)
21,C[C@H](CO)N1C[C@H](C)[C@@H](CN(C)Cc2ccc(-c3ccccc3)cc2)Oc2c(NC(=O)c3ccncc3)cccc2C1=O,-29.7% (inactive)
22,C[C@@H]1CN([C@H](C)CO)C(=O)c2cccc(NC(=O)NC3CCCCC3)c2O[C@H]1CN(C)S(=O)(=O)c1ccc(F)cc1,1.29% (inactive)
23,C[C@@H]1CN([C@H](C)CO)C(=O)c2cccc(NC(=O)c3ccncc3)c2O[C@@H]1CN(C)CC1CCCCC1,29% (inactive)
24,Cc1ccc(S(=O)(=O)N(C)C[C@H]2Oc3ccc(NS(=O)(=O)c4ccc(Cl)cc4)cc3CC(=O)N([C@H](C)CO)C[C@@H]2C)cc1,3.37% (inactive)
25,Cc1ccc(S(=O)(=O)Nc2ccc3c(c2)CC(=O)N([C@@H](C)CO)C[C@H](C)[C@@H](CN(C)Cc2ccccc2)O3)cc1,30.9% (inactive)
26,Cc1noc(C)c1NC(=O)Nc1cccc2c1O[C@H](CN(C)S(C)(=O)=O)[C@H](C)CN([C@@H](C)CO)C2=O,1.29% (inactive)
27,C[C@@H]1CN([C@H](C)CO)C(=O)c2cccc(NC(=O)c3ccncc3)c2O[C@@H]1CN(C)Cc1ccc(-c2ccccc2)cc1,6.2% (inactive)
28,C[C@H]1CN([C@@H](C)CO)C(=O)c2cccc(NC(=O)c3ccncc3)c2O[C@H]1CN(C)Cc1ccc(-c2ccccc2)cc1,18.2% (inactive)
29,C[C@@H]1CN([C@H](C)CO)C(=O)c2cccc(NC(=O)c3ccncc3)c2O[C@H]1CN(C)Cc1ccc(Oc2ccccc2)cc1,-6.58% (inactive)

# Same assay, conditions: NIH/3T3 viability, ATP luminescence (CellTiter-Glo), 90 h; at 21 µM (top of the series)
row,SMILES,"activity change, negative = cytotoxicity"
1,C[C@@H]1CN([C@@H](C)CO)C(=O)c2cccc(NC(=O)c3ccncc3)c2O[C@@H]1CN(C)Cc1ccc2c(c1)OCO2,-12.5% (inactive)
2,Cc1ccc(S(=O)(=O)Nc2ccc3c(c2)CC(=O)N([C@@H](C)CO)C[C@H](C)[C@@H](CN(C)S(=O)(=O)c2ccc(Cl)cc2)O3)cc1,11.7% (inactive)
3,C[C@H]1CN([C@@H](C)CO)C(=O)c2cccc(NC(=O)Nc3ccc(C(F)(F)F)cc3)c2O[C@@H]1CN(C)Cc1ccc(Cl)c(Cl)c1,-12.5% (inactive)
4,C[C@@H]1CN([C@@H](C)CO)C(=O)c2cccc(NC(=O)c3ccncc3)c2O[C@H]1CN(C)Cc1ccccc1,6.47% (inactive)

# Tested on: NIH/3T3 viability, ATP luminescence (CellTiter-Glo), 90 h
# Assay: as above
# Details: not given
row,SMILES,AC50 [µM]
1,C[C@@H]1CN([C@@H](C)CO)C(=O)c2cccc(NC(=O)c3ccncc3)c2O[C@H]1CN(C)Cc1ccc(Oc2ccccc2)cc1,20.5
